Data taken from US8609635B2, “Fused tricyclic silyl compounds and methods of use thereof for the treatment of viral diseases” (priority 2010, dated 2013).

What was measured:
[1] = system: HCV replicon gt1b_con1; assay: Cell-based HCV replicon assay (TaqMan), genotype 1b (Con1); conditions: Hepatitis C virus, 72 h; replicon 1b (Con1); replicon RNA by TaqMan, day 3
Method in brief: (§1)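 Replicon cells seeded at 5000 cells/well with compound (10 serial 2-fold dilutions from 250 μM to 1 μM top dose; 0.5% DMSO, 5% FBS) and lysed on day 3. Replicon RNA quantified by multiplex TaqMan RT-PCR (NS5B amplicon, GAPDH control); ΔCT versus concentration fitted to sigmoid dose-response. Chimeras carry patient-isolate NS5A.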

[2] = system: HCV chimeric replicon with NS5A of genotype 3a (NC00982); assay: Cell-based HCV replicon assay (TaqMan), chimeric replicon genotype 3a (NC00982); conditions: Hepatitis C virus, 72 h, read-out: HCV replicon EC50 3a (NC00982), chimeric replicon 3a (NC00982); replicon RNA by TaqMan, day 3
Method in brief: as §1

[3] = Pharmacokinetic analysis in dogs; assay type: in vivo, male beagle dogs; conditions: Dog, dihydrochloride salt, 2 mpk/PO, 1 mpk/IV
Protocol: (§2) Various pharmacokinetic parameters for compound 56 were measured in rats, dogs and monkeys as described below.
Following an overnight fast, male beagle dogs were dosed with the dihydrochloride salt of compound 56 orally at 2 mg/kg as a suspension in 0.4% hydroxylpropyl methylcellulose (HPMC) or intravenously at 1 mg/kg as a solution in 20% hydroxypropyl-β-cyclodextrin (20% HPβCD). For oral dosing, the animals were typically restrained by hand and dosed by oro-gastric intubation. Dogs were fed approximately 4 hours after dosing. Blood samples were collected from the jugular or cephalic vein at 0.25, 0.5, 1, 2, 4, 6, 8, 12, 24, 48, 72 and 96 hrs (PO) and 0.167, 0.25, 0.5, 1, 2, 4, 6, 8, 12, 24, 48, 72 and 96 hrs (IV) post-dosing and centrifuged to generate plasma. The plasma samples were stored at […] until analysis.
(§3) Collected plasma samples were analyzed for the presence of compound 56 using LC-MS/MS as described below.
(§4) The HPLC/API-MS/MS system for the example data consisted of a HPLC pumping system and a auto sampler with the sample tray refrigeration option connected directly to a triple quadrupole mass spectrometer with an API source. Typical HPLC methods for the example data was based on a fast gradient of two solvents: solvent A consisted of 0.1% formic acid in water, and solvent B consisted of 0.1% formic acid in acetonitrile. A fast linear gradient (start at 90% A for 0.2 min, ramp to 95% B from 0.2 to 0.5 min, hold at 95% B […], then ramp back to 90% A from 1.0 to 1.1 min, then hold at, […] from 1.1 to 1.2 min) was used. The flow rate for the HPLC system was set to 1 mL/min throughout the HPLC gradient; the HPLC column was a Halo C18 column (2.7 micron particle size, 50×2.1 mm). The example compounds were analyzed by positive ion atmospheric pressure chemical ionization tandem mass spectrometry (APCI-MS/MS). As a general procedure, selected reaction monitoring (SRM) methods were developed for each compound prior to analysis of the plasma samples. Normally, the individual SRM transitions were based on a fragmentation from the protonated molecule ([MH].) to a characteristic product ion.
(§5) Using the methods described above, the following pharmacokinetic parameters were calculated in rats, dogs and monkeys and the results are summarized in the table below.

[4] = Pharmacokinetic analysis in monkeys; assay type: in vivo, male cynomolgus monkeys; conditions: Monkey, dihydrochloride salt, 2 mpk/PO, 1 mpk/IV
Protocol: as §2
Following an overnight fast, male cynomolgus monkeys were dosed with the dihydrochloride salt of compound 56 orally at 2 mg/kg as a suspension in 0.4% hydroxylpropyl methylcellulose (HPMC) or intravenously at 1 mg/kg as a solution in 20% hydroxypropyl-β-cyclodextrin (20% HPβCD). For oral dosing, the animals dosed by oro-gastric intubation. Monkeys were fed approximately 1 hour before dosing and 4 hours after dosing. Blood samples were collected from the saphenous and/or cephalic vein at 0.25, 0.5, 1, 2, 4, 6, 8, 12, 24, 48, and 72 (PO), and 0.167, 0.25, 0.5, 1, 2, 4, 6, 8, 12, 24, 48, and 72 hrs (IV) post-dosing and centrifuged to generate plasma. The plasma samples were stored at […] until analysis.
as §3, §4, §5

[5] = dose-normalized AUC between PO and IV

COC(=O)N[C@H](C(=O)N1CC(F)(F)C[C@H]1c1ncc(-c2ccc(-c3ccc4c(ccc5nc([C@@H]6C[Si](C)(C)CN6C(=O)[C@@H](NC(=O)OC)C(C)C)[nH]c54)c3)cc2)[nH]1)C(C)C [Compound 56]
EC50 [1]: 0.003 nM
EC50 [2]: 0.35 nM
Effective Half-Life [3]: 18 h
Volume of Distribution [3]: 1.3 L/kg
Oral Bioavailability [3, 5]: 8.7%
clearance ([3]; male, beagle, plasma, 1 mg/kg, read-out: Systemic Clearance): 0.8 mL/min/kg
Effective Half-Life [4]: 17 h
Systemic Clearance [4]: 1.2 mL/min/kg
Volume of Distribution [4]: 1.7 L/kg
Oral Bioavailability [4, 5]: 11.7%
